Test results as given in US20140023611A1 (priority 2010, published 2014).

Key:
[1] = molecular target: T1, human NaP2b (SLC34A2) (Homo sapiens, UniProt O95436); experiment: Inhibition of NaP2b-mediated Pi (33P) uptake in transfected HEK293 cells, human NaP2b; assay type: cell-based; details: read-out: pIC50 range for human NaP2b (converted)
T1 construct: host or cells: HEK293
T1 sequence (O95436 1-690): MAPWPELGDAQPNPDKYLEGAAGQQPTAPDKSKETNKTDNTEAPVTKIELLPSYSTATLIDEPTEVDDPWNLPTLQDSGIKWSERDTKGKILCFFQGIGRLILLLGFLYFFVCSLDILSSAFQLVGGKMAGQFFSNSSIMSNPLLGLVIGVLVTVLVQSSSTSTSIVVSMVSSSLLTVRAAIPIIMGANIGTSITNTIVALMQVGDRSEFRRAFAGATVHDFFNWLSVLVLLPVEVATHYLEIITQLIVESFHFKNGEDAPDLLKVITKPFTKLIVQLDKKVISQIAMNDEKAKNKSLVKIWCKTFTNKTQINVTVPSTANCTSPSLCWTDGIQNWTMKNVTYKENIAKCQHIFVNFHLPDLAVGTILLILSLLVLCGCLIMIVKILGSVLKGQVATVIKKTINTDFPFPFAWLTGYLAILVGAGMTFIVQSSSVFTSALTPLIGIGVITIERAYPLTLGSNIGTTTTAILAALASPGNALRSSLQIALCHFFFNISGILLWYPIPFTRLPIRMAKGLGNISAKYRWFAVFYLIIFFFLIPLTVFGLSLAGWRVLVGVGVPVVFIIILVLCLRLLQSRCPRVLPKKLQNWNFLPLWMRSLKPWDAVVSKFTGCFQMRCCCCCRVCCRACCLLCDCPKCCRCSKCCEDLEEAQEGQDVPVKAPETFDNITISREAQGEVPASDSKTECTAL
Experimental: HEK293 cells were obtained from the American Type Culture collection and propagated per their instructions. Expression clones for rat and human NaP2b (SLC34A2) were obtained from Open Biosystems (Catalog numbers MRN1768-9510282, and MHS1010-99823026, respectively). The sequence of the human protein was mutated to insert a threonine after residue 37, and to introduce a N39D mutation.
The rate of phosphate (Pi) uptake into HEK293 cells was measured using a modification of the method described by Mohrmann et al. (Mohrmann, I., Mohrmann, M., Biber, J., and Murer, H. (1986) Am. J. Phys. 250(3 Pt 1):G323-30.) Transfected HEK293 cells were treated with a pharmacological agent to minimize endogenous PiT-mediated phosphate transport activity, such that the only remaining sodium-dependent phosphate transport activity is that which was bestowed by introduction of the NaP2b genes.
Cells were seeded into 96-well plates at 25,000 cells/well and cultured overnight. Lipofectamine 2000 (Invitrogen) was used to introduce the NaP2b cDNA, and the cells were allowed to approach confluence during a second overnight incubation. […] Cells were then overlayed with either choline uptake buffer or sodium uptake buffer (14 mM Tris, 137 mM sodium chloride, 5.4 mM KCl, 2.8 mM CaCl2, 1.2 mM MgSO4, 100 uM KH2PO4, PiT-silencing agent, 1 mg/mL Bovine Serum Albumin, pH 7.4) containing 6-9 uCi/mL ^33P orthophosphoric acid (Perkin Elmer) and test compound. Each compound was tested at twelve concentrations ranging from 0.1 nM to 30 uM. Assays were run in duplicate.
After incubation for 3-30 minutes at room temperature, assay mixtures were removed, and the cells were washed twice with ice cold stop solution (137 mM sodium chloride, 14 mM Tris, pH 7.4). Cells were lysed by addition of 20 μL 0.1% Tween 80 followed by 100 μL scintillation fluid, and counted using a TopCount (Perkin Elmer).
pIC50 (the negative log of the IC50) values of the test compounds were calculated using GraphPad Prism.

[2] = molecular target: T2, rat NaP2b (SLC34A2) (Rattus norvegicus, UniProt Q9JJ09); experiment: Inhibition of NaP2b-mediated Pi (33P) uptake in transfected HEK293 cells, rat NaP2b; assay type: cell-based; details: 33P Pi uptake, 0.1 mM phosphate, value given as pIC50 range
T2 construct: host or cells: HEK293
T2 sequence (Q9JJ09 1-695): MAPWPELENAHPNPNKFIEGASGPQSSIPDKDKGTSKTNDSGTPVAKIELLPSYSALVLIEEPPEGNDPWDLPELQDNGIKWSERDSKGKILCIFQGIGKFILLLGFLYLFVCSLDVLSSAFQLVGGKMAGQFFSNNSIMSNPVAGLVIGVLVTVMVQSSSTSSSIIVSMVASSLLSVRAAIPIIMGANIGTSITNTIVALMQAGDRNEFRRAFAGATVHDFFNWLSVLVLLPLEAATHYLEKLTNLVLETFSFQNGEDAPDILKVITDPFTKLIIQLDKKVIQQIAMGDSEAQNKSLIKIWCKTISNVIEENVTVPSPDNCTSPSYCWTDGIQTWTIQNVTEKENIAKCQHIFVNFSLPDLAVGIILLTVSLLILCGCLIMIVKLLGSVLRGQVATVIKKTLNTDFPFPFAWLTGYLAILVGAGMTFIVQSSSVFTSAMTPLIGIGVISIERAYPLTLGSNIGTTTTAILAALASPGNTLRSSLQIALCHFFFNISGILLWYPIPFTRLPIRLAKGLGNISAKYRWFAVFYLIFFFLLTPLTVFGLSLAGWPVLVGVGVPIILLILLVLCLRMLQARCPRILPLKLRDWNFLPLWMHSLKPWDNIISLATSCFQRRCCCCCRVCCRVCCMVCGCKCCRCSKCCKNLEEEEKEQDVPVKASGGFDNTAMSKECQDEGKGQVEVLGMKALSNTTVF
Outline: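 The cells transiently expressed NaP2b after Lipofectamine transfection. Each compound was run in duplicate over twelve concentrations, 0.1 nM–30 uM.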

IC50 [1]	IC50 [2]	Structure (SMILES)
1 to 7.94 µM	< 1 µM	CCN(CC)c1ccc(NC(=O)c2cccc(C(=O)N(C)CCN(C)CCOCCOCCOCCNS(C)(=O)=O)c2)c(-c2cc(C(=O)N[C@H]3CCCc4ccccc43)ccn2)c1 [Example 226, 3-N-[4-(diethylamino)-2-(4-{[(1S)-1,2,3,4-tetrahydronaphthalen-1-yl]carbamoyl}pyridin-2-yl)phenyl]-1-N-(1-methanesulfonamido-12-methyl-3,6,9-trioxa-12-azatetradecan-14-yl)-1-N-methylbenzene-1,3-dicarboxamide]
1 to 7.94 µM	1 to 7.94 µM	CCN(CC)c1ccc(NC(=O)c2cccc(C(=O)N(C)CCN3CCN(C(=O)COCCOCCOCCOCCOCCOCCOCCOC)CC3)c2)c(-c2cc(C(=O)N[C@H]3CCCc4ccccc43)ccn2)c1 [Example 227, (S)—N1-(2-(4-2,5,8,11,14,17,20,23-octaoxapentacosanepiperazin-1-yl)ethyl)-N3-(4-(diethylamino)-2-(4-(1,2,3,4-tetrahydronaphthalen-1-ylcarbamoyl)pyridin-2-yl)phenyl)-N1-methylisophthalamide]
< 1 µM	< 1 µM	CN(CCN1CCN(C(=O)N(C)CCOCCOCCOCCC(=O)OC(C)(C)C)CC1)C(=O)c1cccc(C(=O)Nc2ccc(N3CCCCC3)cc2-c2cc(C(=O)N[C@H]3CCCc4ccccc43)ccn2)c1 [Example 229, tert-butyl 3-[2-(2-{2-[methyl(4-{2-[N-methyl-1-(3-{[4-(piperidin-1-yl)-2-(4-{[(1S)-1,2,3,4-tetrahydronaphthalen-1-yl]carbamoyl}pyridin-2-yl)phenyl]carbamoyl}phenyl)formamido]ethyl}piperazin-1-yl)carbonylamino]ethoxy}ethoxy)ethoxy]propanoate]
1 to 7.94 µM	1 to 7.94 µM	CCN(CC)c1ccc(NC(=O)c2cccc(C(=O)N(C)CCN3CCN(C(=O)OCCOCCOCCOCCOCCOCCOCCOC)CC3)c2)c(-c2cc(C(=O)N[C@H]3CCCc4ccccc43)ccn2)c1 [Example 230, (S)-2,5,8,11,14,17,20-heptaoxadocosan-22-yl 4-(2-(3-(4-(diethylamino)-2-(4-(1,2,3,4-tetrahydronaphthalen-1-ylcarbamoyl)pyridin-2-yl)phenylcarbamoyl)-N-methylbenzamido)ethyl)piperazine-1-carboxylate]
10 to 31.6 µM	10 to 31.6 µM	CCN(CC)c1ccc(NC(=O)c2cccc(C(=O)N(C)CCN3CCN(C(=O)N(C)CCOCCOCCOCCC(=O)N4CCN(CCOCCO)CC4)CC3)c2)c(-c2cc(C(=O)N[C@H]3CCCc4ccccc43)ccn2)c1 [Example 231, 3-N-[4-(diethylamino)-2-(4-{[(1S)-1,2,3,4-tetrahydronaphthalen-1-yl]carbamoyl}pyridin-2-yl)phenyl]-1-N-(2-{4-[(2-{2-[2-(3-{4-[2-(2-hydroxyethoxy)ethyl]piperazin-1-yl}-3-oxopropoxy)ethoxy]ethoxy}ethyl)(methyl)carbamoyl]piperazin-1-yl}ethyl)-1-N-methylbenzene-1,3-dicarboxamide]
< 1 µM	< 1 µM	CN(CCOCCOCCOCCC(=O)N1CCN(CCOCCO)CC1)C(=O)Cc1cccc(SCc2cccc(C(=O)Nc3ccc(N4CCCCC4)cc3-c3cc(C(=O)N[C@H]4CCCc5ccccc54)ccn3)c2)c1 [Example 236, (S)-2-(2-(3-((3-(15-(4-(2-(2-hydroxyethoxy)ethyl)piperazin-1-yl)-3-methyl-21-2.15-dioxo-6,9,12-trioxa-3-azapentadecyl)phenylthio)methyl)benzamido)-5-(piperidin-1-yl)phenyl)-N-(1,2,3,4-tetrahydronaphthalen-1-yl)isonicotinamide]
< 1 µM	< 1 µM	CN(CCN1CCOC[C@H]1C(=O)N(C)CCOCCOCCOCCC(=O)OC(C)(C)C)C(=O)c1cccc(C(=O)Nc2ccc(N3CCCCC3)cc2-c2cc(C(=O)N[C@H]3CCCc4ccccc43)ccn2)c1 [Example 242, tert-butyl 2-methyl-1-((S)-4-(2-(N-methyl-3-(4-(piperidin-1-yl)-2-(4-((S)-1,2,3,4-tetrahydronaphthalen-1-ylcarbamoyl)pyridin-2-yl)phenylcarbamoyl)benzamido)ethyl)morpholin-3-yl)-1-oxo-5,8,11-trioxa-2-azatetradecan-14-oate]
10 to 31.6 µM	10 to 31.6 µM	CN(CCN1CCOC[C@H]1C(=O)N(C)CCOCCOCCOCCC(=O)O)C(=O)c1cccc(C(=O)Nc2ccc(N3CCCCC3)cc2-c2cc(C(=O)N[C@H]3CCCc4ccccc43)ccn2)c1 [Example 243, 2-methyl-1-((S)-4-(2-(N-methyl-3-(4-(piperidin-1-yl)-2-(4-((S)-1,2,3,4-tetrahydronaphthalen-1-ylcarbamoyl)pyridin-2-yl)phenylcarbamoyl)benzamido)ethyl)morpholin-3-yl)-1-oxo-5,8,11-trioxa-2-azatetradecan-14-oic acid]
1 to 7.94 µM	1 to 7.94 µM	CN(CCN1CCC(C(=O)OC(C)(C)C)CC1)C(=O)c1cccc(C(=O)Nc2ccc(N3CCCCC3)cc2-c2cc(C(=O)N[C@H]3CCCc4ccccc43)ccn2)c1 [Example 244, (S)-tert-butyl 1-(2-(N-methyl-3-(4-(piperidin-1-yl)-2-(4-(1,2,3,4-tetrahydronaphthalen-1-ylcarbamoyl)pyridin-2-yl)phenylcarbamoyl)benzamido)ethyl)piperidine-4-carboxylate]
1 to 7.94 µM	1 to 7.94 µM	O=C(O)CCOCCOCCOCCOCCCc1cccc(SCc2cccc(C(=O)Nc3ccc(N4CCCCC4)cc3-c3cc(C(=O)N[C@H]4CCCc5ccccc54)ccn3)c2)c1 [Example 247, 3-(2-(2-(2-(3-(3-((30S)-3-((2-(4-(((S)-1,2,3,4-tetrahydronaphthalen-1-yl)carbamoyl)pyridin-2-yl)-4-(piperidin-1-yl)phenyl)carbamoyl)benzylthio)phenyl)propoxy)ethoxy)ethoxy)ethoxy)propanoic acid]
< 1 µM	1 to 7.94 µM	CCN(CC)c1ccc(NC(=O)c2cccc(CCCOCCOCCOCCOCCC(=O)N3CCC[C@H](C(=O)N(C)CCOCCOCCOCCOCCOCCOCCOC)C3)c2)c(-c2cc(C(=O)NCc3cccc(C(F)(F)F)c3)ccn2)c1 [Example 257, (S)-2-(2-(3-(16-(3-(2,5,8,11,14,17,20-heptaoxadocosan-22-yl(methyl)carbamoyl)piperidin-1-yl)-16-oxo-4,7,10,13-tetraoxahexadecyl)benzamido)-5-(diethylamino)phenyl)-N-(3-(trifluoromethyl)benzyl)isonicotinamide]
